Measurements published in ChEMBL document CHEMBL1201862, “PubChem BioAssay data set” (2004).
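Briefly, cells in 96-well plates were exposed to five compound concentrations for 48 h, and endpoints were estimated by linear interpolation. GI50 is the concentration that inhibits growth by half.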 Active and inactive are the calls of the source. Rule as the data show it: active = GI50 up to about 1.1 µM and inactive = higher.

How the values were obtained:
Assay in all cases: NCI anticancer screen, dose series, 48 h
KM-20L2 = tested on: KM-20L2
DMS-114 = tested on: DMS-114
DMS-273 = tested on: DMS-273
DLD-1 = tested on: DLD-1
M19-MEL = tested on: M19-MEL
RXF 631 = tested on: RXF 631
HOP-18 = tested on: HOP-18
BT-549 = tested on: BT-549
MDA-N = tested on: MDA-N

`O=C1/C(=C/c2ccc(Cl)cc2)CCC1CCN1CCOCC1` (stereo not drawn) was tested, and the GI50 (KM-20L2) was 43.8 µM (inactive), the GI50 (DMS-114) was 28.7 µM (inactive) and the GI50 (DMS-273) was 57 µM (inactive). For the same compound, the GI50 (DLD-1) was 61 µM (inactive), the GI50 (M19-MEL) was 72.9 µM (inactive) and the GI50 (RXF 631) was 46.6 µM (inactive). For the same compound, the GI50 (HOP-18) was > 100 µM (inactive).

For `Cc1cc(=O)cc2sc3c(C)cccc3nc1-2`, the GI50 (DMS-273) was 83.6 µM (inactive), the GI50 (DLD-1) was 22.1 µM (inactive) and the GI50 (M19-MEL) was 19.5 µM (inactive). For the same compound, the GI50 (RXF 631) was > 100 µM (inactive) and the GI50 (HOP-18) was 41.9 µM (inactive).

`Cc1ccc(S(=O)(=O)N2CCN(C=S)CC2)cc1` was tested, and the GI50 (KM-20L2) was > 100 µM (inactive), the GI50 (DMS-114) was > 100 µM (inactive) and the GI50 (DMS-273) was > 100 µM (inactive). The GI50 (DLD-1) was > 100 µM (inactive), the GI50 (M19-MEL) was > 100 µM (inactive) and the GI50 (RXF 631) was > 100 µM (inactive). The GI50 (HOP-18) was > 100 µM (inactive).

With `CS(=O)(=O)c1nc(Cl)c(Cl)c(C#N)c1Cl` the GI50 (KM-20L2) was 6.03 µM (inactive), the GI50 (DMS-114) was 5.32 µM (inactive) and the GI50 (DMS-273) was 6.68 µM (inactive). For the same compound, the GI50 (DLD-1) was 1.59 µM (inactive), the GI50 (RXF 631) was 20.2 µM (inactive) and the GI50 (BT-549) was 1.9 µM (inactive). For the same compound, the GI50 (MDA-N) was 1.83 µM (inactive) and the GI50 (HOP-18) was 6.1 µM (inactive).

For `COc1ccc(/C(Cl)=C(\C=O)c2ccc([N+](=O)[O-])cc2)cc1`, the GI50 (KM-20L2) was 15 µM (inactive), the GI50 (DMS-114) was 17.3 µM (inactive) and the GI50 (DMS-273) was 20 µM (inactive). The GI50 (DLD-1) was 16.7 µM (inactive), the GI50 (RXF 631) was 24.2 µM (inactive) and the GI50 (HOP-18) was 34.9 µM (inactive).

In the case of `CCCC/C=C1\CCC(CN2CCCCC2)C1=O` (stereo not drawn), the GI50 (KM-20L2) is reported as 15.2 µM (inactive), the GI50 (DMS-114) is reported as 6.65 µM (inactive) and the GI50 (DLD-1) is reported as 1.76 µM (inactive). The GI50 (M19-MEL) was 8.36 µM (inactive), the GI50 (RXF 631) was 8.11 µM (inactive) and the GI50 (BT-549) was > 100 µM (inactive). The GI50 (MDA-N) was > 100 µM (inactive) and the GI50 (HOP-18) was 8.73 µM (inactive).

For `S=C1SCC2CCCN12` (stereo not drawn), the GI50 (KM-20L2) was > 100 µM (inactive), the GI50 (DMS-114) was > 100 µM (inactive) and the GI50 (DMS-273) was > 100 µM (inactive). For the same compound, the GI50 (DLD-1) was > 100 µM (inactive), the GI50 (M19-MEL) was > 100 µM (inactive) and the GI50 (RXF 631) was > 100 µM (inactive). The GI50 (HOP-18) was > 100 µM (inactive).

`CC[C@@H](C)[C@@H]1NC(=O)C(C(C)=O)=C1O` was tested, and the GI50 (KM-20L2) was 23.2 µM (inactive), the GI50 (DMS-114) was 31.8 µM (inactive) and the GI50 (DMS-273) was 24.4 µM (inactive). The GI50 (DLD-1) was 20.9 µM (inactive), the GI50 (M19-MEL) was 11.9 µM (inactive) and the GI50 (RXF 631) was 15.1 µM (inactive). The GI50 (HOP-18) was 12.9 µM (inactive).

In the case of `Cn1c(=O)cc2[nH]c3ccccc3n2c1=O`, the GI50 (KM-20L2) is reported as 77.4 µM (inactive), the GI50 (DMS-114) is reported as > 100 µM (inactive) and the GI50 (DMS-273) is reported as 25.5 µM (inactive). The GI50 (DLD-1) was 40.2 µM (inactive), the GI50 (M19-MEL) was 33.7 µM (inactive) and the GI50 (RXF 631) was 29.6 µM (inactive). The GI50 (HOP-18) was 61.7 µM (inactive).

`NC1CCC[C@H]1O` (stereo partly drawn) was tested, and the GI50 (KM-20L2) was > 100 µM (inactive), the GI50 (DMS-114) was > 100 µM (inactive) and the GI50 (DMS-273) was > 100 µM (inactive). The GI50 (DLD-1) was > 100 µM (inactive), the GI50 (M19-MEL) was > 100 µM (inactive) and the GI50 (RXF 631) was > 100 µM (inactive). The GI50 (HOP-18) was > 100 µM (inactive).

With `CC(C)(C)OC(=O)C#CC[C@H]1CCCC1/C=C/C(O)=C1/C(=O)NC(CCCNC(=O)OC(C)(C)C)C1=O` (stereo partly drawn) the GI50 (KM-20L2) was 25.1 µM (inactive), the GI50 (DMS-114) was 21.3 µM (inactive) and the GI50 (DMS-273) was 26.1 µM (inactive). The GI50 (DLD-1) was 53 µM (inactive), the GI50 (M19-MEL) was 25.9 µM (inactive) and the GI50 (RXF 631) was 19.4 µM (inactive). For the same compound, the GI50 (HOP-18) was 25.7 µM (inactive).

With `Cn1cnc([N+](=O)[O-])c1Sc1nc2ccccc2o1` the GI50 (KM-20L2) was 4.66 µM (inactive), the GI50 (DMS-114) was 2.14 µM (inactive) and the GI50 (DMS-273) was 3.01 µM (inactive). For the same compound, the GI50 (DLD-1) was 4.13 µM (inactive), the GI50 (M19-MEL) was 8.43 µM (inactive) and the GI50 (RXF 631) was 4.05 µM (inactive). The GI50 (HOP-18) was 0.389 µM (active).
